The values that follow come from patent publication US6410218B1, “Plasma-like solution” (BioTime, Inc., priority 1993, dated 2002).

The conditions of series [1]: cited from earlier work.
The nature of series [2]: Buffering capacity in a cell-free system (addition of 1.25 M HCl). The class given is physicochemical. On the procedure:
By contrast, the pH of HLB solution (initial pH 7.7) drops below 7.2 with the addition of about 0.01 ml of a 1.25 M HCl solution.
When the solution of the present invention is used as a blood substitute at hypothermic temperatures, medical grade sterile NaHCO3 is added to the heat sterilized solution (HL solution). The solution containing NaHCO3 is called HLB solution. Under in vivo conditions with oxygenation, HLB solution is shown to maintain pH above 7.3 in temperatures ranging from 1.6-36.1° C. (Tables 2 and 3).

Consider hydroxyethyl starch, for which the “share of dose eliminated in the urine” value in series [1] (500 ml intravenous dose of 6% solution, after 24 hours) is “approximately 33%”. In addition, in series [1] (after 1 week), the “share of dose remaining circulating” value is recorded as “Approximately 10%”.

Turning to `NCC(CO)(CO)CO` [25 mM TRIS, Tris[Hydroxymethyl]methyl aminomethane], in series [2] (cell-free solution before HCl addition), the “initial pH” value is “about 7.7”. In addition, the “volume of 1.25 M HCl solution added with pH maintained above 7.2” value in series [2] (cell-free, initial pH about 7.7) is listed as “up to 0.12 mls”.
